The values below come from patent publication US20110091377A1, “BIOMARKERS FOR MELANOMA” (THE JOHNS HOPKINS UNIVERSITY, priority 2007, published 2011).

What all share (format): cell-based, human
Test [1] concerns MMP-1. Description: MMP-1 ELISA of cell culture media after siRNA gene silencing. As to the method:
Cell culture media with no serum was added to the cell lines. After 72 hours, the media was collected and the protein concentration was determined using the Bio-Rad Protein Assay reagent (Bio-Rad Laboratories). The amount of human MMP-1 pro and active forms was determined using the RAYBIO Human MMP-1 ELISA kit (RayBiotech, Inc.) following the manufacturer's instructions. MMP-1 activity in the collected media was measured using the SensoLyte Plus™ 520 MMP-1 Assay Kit (AnaSpec) following the manufacturer's protocol including the step to add 4-aminophenylmecuric acetate (APMA) to the samples in order to activate all the pro-MMP-1.

For test [2], the system named is WM793 (BRAF V600E melanoma). Description: 3H-thymidine cell proliferation assay, WM793. Particulars: BRAF mutant melanoma (WM793), 250 nM siRNA. The protocol:
(§1) The MMP-1 siRNA (5′-gagcaagatgtggacttag-3′) and scrambled siRNA (5′-gattcaggtgtagaacgag-3′) sequences were designed using Dharmacon siDESIGN Center. Transfection of the siRNAs was performed using 2 μL of DharmaFECT 1 transfection reagent (Dharmacon) and 100 nM of MMP-1 siRNA and scrambled siRNA for the WM852 cell line and 250 nM for the WM793 cell line. Cells were collected and pelleted 24 hours after transfection for RNA extraction using the RNeasy Mini Kit ([…]), cDNA production by using SUPERSCRIPT First-Strand Synthesis System for RT-PCR according to manufacturer's instructions (Invitrogen), and semi-quantitative duplex PCR to confirm MMP-1 knockdown.
(§2) WM852 and WM793 cell lines were seeded at 15,000 cells per well into a 96-well tissue culture plate (Becton Dickinson) 24 hours after siRNA transfection. Twenty-two hours later, 10 μL of 0.1 μCi/μL ^3H-thymidine (Perkin Elmer) was added to each well. After 4 hours, the cells were washed with PBS and 50 μL of trypsin was added into each well for 10 minutes. The trypsinized cells were harvested to a filtermat using the Perkin Elmer FilterMate cell harvester (Perkin Elmer). The dried filtermat was sealed in a sample bag with 4 mL of scintillation fluid and then read on a Perkin Elmer 1450 Microbeta Liquid Scintillator (Perkin Elmer).

In test [3] the test system is MMP-1. Description: Semi-quantitative duplex RT-PCR of MMP-1 after siRNA gene silencing. Particulars: 24 hours after transfection. The protocol: as §1
Semi-quantitative duplex RT-PCR was performed by a MJ Research Programmable Thermal Controller (PTC-100, Inc.) and the amplified products were separated on an agarose gel. The duplex PCR utilized 20 by oligonucleotides to amplify regions of ˜350 by from MMP-1. Optimization experiments were conducted to determine a favorable primer concentration for the GAPDH internal control. The following primer oligonucleotides were used: MMP-1 forward (5′-[…]-3′), MMP-1 reverse (5′-[…]-3′), GAPDH forward (5′-[…]-3′), and GAPDH reverse (5′-[…]-3′). The PCR was carried out in a total volume of 25 uL, containing 2.5 uL of 10×PCR Buffer (containing 15 mM MgC12), 0.2 mM dNTPs, and 0.3 ul AmpliTaq Gold DNA Polymerase (Applied Biosystems). […]

Test [4] deals with WM852 (wildtype BRAF melanoma). Description: 3H-thymidine cell proliferation assay, WM852. The conditions noted are these: 100 nM siRNA. The protocol: as §1, §2

In the case of 5′-gagcaagatgtggacttag-3′ [MMP-1 siRNA], the “secreted MMP-1 protein levels from conditioned media” value in the test on MMP-1 [1] (WM793, BRAF V600E) was “efficiently downregulated”; in the test with MMP-1 [1] (WM852, wildtype BRAF), “efficiently downregulated”. The “cell growth inhibition versus control siRNA” value was found to be 80% in test [2] and 17% in test [4]. For the same substance, the MMP-1 transcript levels entry in the test with MMP-1 [3] (WM793, BRAF V600E, 250 nM siRNA) was “efficiently downregulated”; in the test on MMP-1 [3] (WM852, wildtype BRAF, 100 nM siRNA), “efficiently downregulated”.
